Assays:
Type in all cases: in vivo
[1] = tested on: pigweed (Amaranthus retroflexus); assay: Test A postemergence; settings: postemergence, 0 to 100 scale (0 no effect, 100 complete control)
Method in brief: (§1)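 Visual injury, scored on a 0–100 scale relative to untreated controls, was recorded about 10 d after application. Treatments were a preemergence soil spray over planted seeds or a postemergence spray on plants at the one- to two-leaf stage, 2 to 10 cm tall, all in loam soil–sand blend in the greenhouse.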

[2] = tested on: blackgrass (Alopecurus myosuroides); assay: Test A postemergence; settings: postemergence, 0 to 100 scale (0 no effect, 100 complete control)
Method in brief: as §1

[3] = tested on: wheat (Triticum aestivum); assay: Test A postemergence; settings: postemergence, 0 to 100 scale (0 no effect, 100 complete control)
Method in brief: as §1

[4] = tested on: ryegrass, Italian (Italian ryegrass, Lolium multiflorum); assay: Test A postemergence; settings: postemergence, 0 to 100 scale (0 no effect, 100 complete control)
Method in brief: as §1

[5] = tested on: giant foxtail (Setaria faberii); assay: Test A postemergence; settings: postemergence, 0 to 100 scale (0 no effect, 100 complete control)
Method in brief: as §1

[6] = tested on: Galium (catchweed bedstraw, Galium aparine); assay: Test A postemergence; settings: postemergence, 0 to 100 scale (0 no effect, 100 complete control)
Method in brief: as §1

[7] = tested on: ragweed (common ragweed, Ambrosia elatior); assay: Test A postemergence; settings: postemergence, 0 to 100 scale (0 no effect, 100 complete control)
Method in brief: as §1

[8] = tested on: barnyardgrass (Echinochloa crus-galli); assay: Test A postemergence; settings: postemergence, 0 to 100 scale (0 no effect, 100 complete control)
Method in brief: as §1

corn (Zea mays) = assay: Test A postemergence; settings: postemergence, 0 to 100 scale (0 no effect, 100 complete control)
Method in brief: as §1

Kochia (Kochia scoparia) [9] = assay: Test A postemergence; settings: postemergence, 0 to 100 scale (0 no effect, 100 complete control)
Method in brief: as §1

[10] = tested on: johnsongrass (Sorghum halepense); assay: Test C preemergence; settings: for Plant response rating, Johnsongrass: scale 0 to 100, 0 no effect, 100 complete control
Text: Seeds of plant species selected from blackgrass (Alopecurus myosuroides), ryegrass, Italian (Italian ryegrass, Lolium multiflorum), wheat (winter wheat, Triticum aestivum), Galium (catchweed bedstraw, Galium aparine), corn (Zea mays), crabgrass, large (large crabgrass, Digitaria sanguinalis), foxtail, giant (giant foxtail, Setaria faberii), johnsongrass (Sorghum halepense), lambsquarters (Chenopodium album), morningglory (Ipomoea coccinea), nutsedge, yellow (yellow nutsedge, Cyperus esculentus), pigweed (Amaranthus retroflexus), ragweed (common ragweed, Ambrosia elatior), soybean (Glycine max), barnyardgrass (Echinochloa crus-galli), oilseed rape (Brassica napus), waterhemp (common waterhemp, Amaranthus rudis) and velvetleaf (Abutilon theophrasti) were planted into a blend of loam soil and sand and treated preemergence with test chemicals formulated in a non-phytotoxic solvent mixture which included a surfactant.
At the same time, plants selected from these crop and weed species and also Kochia (Kochia scoparia), oat, wild (wild oat, Avena fatua), and chickweed (common chickweed, Stellaria media) were planted in pots containing Sunshine Redi-Earth® planting medium comprising spaghnum peat moss, vermiculite, starter nutrients and dolomitic limestone and treated with postemergence applications of test chemicals formulated in the same manner. Plants ranged in height from 2 to 18 cm (1- to 4-leaf stage) for postemergence treatments. Treated plants and controls were maintained in a greenhouse for 13 to 15 d, after which time all species were compared to controls and visually evaluated. Plant response ratings, summarized in Table C, are based on a scale of 0 to 100 where 0 is no effect and 100 is complete control. A dash (-) response means no test result.

[11] = tested on: pigweed (Amaranthus retroflexus); assay: Test A preemergence
[12] = tested on: ryegrass, Italian (Italian ryegrass, Lolium multiflorum); assay: Test A preemergence
Method in brief: as §1

[13] = tested on: giant foxtail (Setaria faberii); assay: Test A preemergence
Method in brief: as §1

[14] = tested on: ragweed (common ragweed, Ambrosia elatior); assay: Test A preemergence
Method in brief: as §1

[15] = tested on: barnyardgrass (Echinochloa crus-galli); assay: Test A preemergence
Method in brief: as §1

Kochia (Kochia scoparia) [16] = assay: Test A preemergence
Method in brief: as §1

[17] = tested on: ducksalad (Heteranthera limosa); assay: Test B flooded paddy test; settings: Flood, 250 g ai/ha; 0 to 100 scale where 0 is no effect and 100 is complete control; 13 to 15 d
Method in brief: (§2)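 Response scored visually against untreated controls, 0 = no effect and 100 = complete control, 13–15 d after treatment in the greenhouse. Compounds added to paddy water held 3 cm above soil surface. Treatment given at 2-leaf stage.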

[18] = tested on: sedge, umbrella (small-flower umbrella sedge, Cyperus difformis); assay: Test B flooded paddy test; settings: Flood, 250 g ai/ha; 0 to 100 scale where 0 is no effect and 100 is complete control; 13 to 15 d
Method in brief: as §2

[19] = tested on: barnyardgrass (Echinochloa crus-galli); assay: Test B flooded paddy test; settings: Flood, 250 g ai/ha; 0 to 100 scale where 0 is no effect and 100 is complete control; 13 to 15 d
Method in brief: as §2

rice (Oryra sativa) = assay: Test B flooded paddy test; settings: Flood, 250 g ai/ha; 0 to 100 scale where 0 is no effect and 100 is complete control; 13 to 15 d
Method in brief: as §2

[20] = 125 g ai/ha, visual rating after approx. 10 d
[21] = 500 g ai/ha, visual injury, approx. 10 d
[22] = 125 g ai/ha, Preemergence, visual injury after approximately 10 d, 0 to 100 scale where 0 is no effect and 100 is complete control
[23] = 500 g ai/ha, preemergence, 0 to 100 scale, 0 = no effect, 100 = complete control

For `Cc1cccc(C2CN(C)C(=O)C2C(=O)Nc2cccc(F)c2F)c1` (stereo not shown) [Compound 667], the “Plant response rating, Pigweed” value [1, 20] was 0, the “Plant response rating, Pigweed” value [1, 21] was 0 and the “Plant response rating, Blackgrass” value [2, 20] was 60. The “Plant response rating, Blackgrass” value [2, 21] was 70, the “Plant response rating, Wheat” value [3, 20] was 40 and the “Plant response rating, Wheat” value [3, 21] was 70. For the same compound, the “Plant response rating, Ryegrass, Italian” value [4, 20] was 60, the “Plant response rating, Ryegrass, Italian” value [4, 21] was 80 and the “Plant response rating, Foxtail, Giant” value [5, 20] was 90. For the same compound, the “Plant response rating, Foxtail, Giant” value [5, 21] was 90, the “Plant response rating, Galium” value [6, 20] was 50 and the “Plant response rating, Galium” value [6, 21] was 50. For the same compound, the “Plant response rating, Ragweed” value [7, 20] was 0, the “Plant response rating, Ragweed” value [7, 21] was 50 and the “Plant response rating, Barnyardgrass” value [8, 20] was 90. For the same compound, the “Plant response rating, Barnyardgrass” value [8, 21] was 90, the “Plant response rating, Corn” value (corn (Zea mays); [20]) was 70 and the “Plant response rating, Corn” value (corn (Zea mays); [21]) was 80. The “Plant response rating, Kochia” value (Kochia (Kochia scoparia) [9]; [20]) was 50, the “Plant response rating, Kochia” value (Kochia (Kochia scoparia) [9]; [21]) was 60 and the “Plant response rating (scale of 0 to 100), Johnsongrass” value ([10]; 31 g ai/ha, 0 is no effect, 100 is complete control) was 70. The “Plant response rating, Johnsongrass” value ([10]; 62 g ai/ha) was 80, the “Plant response rating, Johnsongrass” value ([10]; 125 g ai/ha) was 85 and the “Plant response rating, Johnsongrass” value ([10]; 250 g ai/ha) was 90. The “Plant response rating, Pigweed” value [11, 22] was 20, the “Plant response rating, Pigweed” value [11, 23] was 50 and the “Plant response rating, Ryegrass, Italian” value [12, 22] was 80. For the same compound, the “Plant response rating, Ryegrass, Italian” value [12, 23] was 90, the “Plant response rating, Foxtail, Giant” value [13, 22] was 90 and the “Plant response rating, Foxtail, Giant” value [13, 23] was 100. For the same compound, the “Plant response rating, Ragweed” value [14, 22] was 60, the “Plant response rating, Ragweed” value [14, 23] was 70 and the “Plant response rating, Barnyardgrass” value [15, 22] was 90. The “Plant response rating, Barnyardgrass” value [15, 23] was 90, the “Plant response rating, Kochia” value (Kochia (Kochia scoparia) [16]; [22]) was 40 and the “Plant response rating, Kochia” value (Kochia (Kochia scoparia) [16]; [23]) was 70. The “Plant response rating, Ducksalad” value [17] was 90, the “Plant response rating, Sedge, Umbrella” value [18] was 0 and the “Plant response rating, Barnyardgrass” value [19] was 75. For the same compound, the “Plant response rating, Rice” value (rice (Oryra sativa)) was 10.

— patent US12077503B2, “Substituted cyclic amides and their use as herbicides” (FMC CORPORATION, priority 2015, dated 2024)
